{"source": "patent US7956041B2", "about": "“Prophylactic and therapeutic agent of diabetes mellitus” (Ajinomoto Co., Inc., priority 2002, dated 2011)", "key": {"[1]": {"test_system": "glucose-loaded rats (Wistar rats)", "assay": "Example I: blood glucose time course after oral glucose loading in rats", "format": "in vivo, rat", "conditions": "glucose 1 g/kg p.o., FIG. 2", "protocol": "Wistar rats (age of 7 weeks; male) were divided into groups with matched body weights. After 17-hour starvation, glucose was orally given at 1 g/kg to the animals. Immediately after the administration, the inhibitor A of renal glucose reabsorption or the inhibitor B of renal glucose reabsorption (A at 30 mg/kg or 60 mg/kg; B at 30 mg/kg or 80 mg/kg) or glibenclamide (1 mg/kg or 2 mg/kg) or nateglinide (50 mg/kg or 80 mg/kg) was orally given. Additionally, a group on the combined use of both of an inhibitor of renal glucose reabsorption and a hypoglycemic agent was also prepared. A vehicle was orally given to a control group after glucose administration.\nBlood glucose was measured in a time course."}, "[2]": {"test_system": "Type 2 diabetes model db/db mice", "assay": "Example IV: nateglinide load test after 25 days of dosing in db/db mice", "format": "in vivo, mouse", "conditions": "db/db mice after long-term inhibitor B 80 mg/kg twice daily; compared with vehicle-dosed and nateglinide-dosed groups", "protocol": "Type 2 diabetes model db/db mice (age 6 weeks) were fed and kept with a feed twice daily over one hour starting 9 am and one hour starting 3 pm, for one week. Then, the mice were divided into groups with matched blood glucose levels and body weights. Subsequently, the inhibitor B of renal glucose reabsorption at 80 mg/kg or nateglinide at 80 mg/kg was orally given, immediately before feeding twice daily. Only a vehicle was orally given immediately before feeding twice daily to the animals of a control group. […] Blood glucose levels were measured before and after the administration, to examine whether or not the hypoglycemic action of nateglinide could be observed (nateglinide load test)."}, "Male Wistar rats [3]": {"test_system": "Male Wistar rats", "assay": "Test Example 1B: excretion action of urine sugar in rat", "format": "in vivo", "conditions": "oral administration, Dose 10 mg/kg, 24 hours", "protocol": "Male Wistar rats aged 5 weeks (purchased from Charles River Japan, Inc.) were acclimatized in metabolic cages for one week, for use at this experiment. The test compounds suspended in olive oil were prepared into solutions to a dose of 5 ml per 1 kg rat body weight. After the rats were starved for 4 hours, the test compounds were orally given at 10, 30 and 100 mg/kg to the rats at 11 am. Immediately after dosing until 24 hours later, urine was collected. The volume of urine was measured. Then, urine glucose concentration was assayed by glucose oxidase method, to calculate the glucose excretion into urine per individual per day. As a positive control, 3-(5-benzo[b]furanyl)-2′-(6-o-methoxycarbonyl-β-D-glucopyranosyloxy)-6′-hydroxy-4′-methylpropiophenone [under a different name of 3-(benzo[b]furan-5-yl)-2′,6′-dihydroxy-4′-methylpropiophenone 2′-o-(6-o-methoxycarbonyl-β-D-glucopyranoside)] was used."}, "[4]": {"test_system": "Renal brush border membrane", "assay": "Test Example 1A: inhibitory action of 14C-D-glucose uptake", "format": "biochemical", "conditions": "rat renal brush border membrane, 37° C., 30 minutes preincubation", "protocol": "Test compounds were dissolved in 100 mM mannitol-10 mM HEPES/Tris, pH 7.4 to prepare solutions at various concentrations.\nRenal brush border membrane was prepared from a rat kidney, to which a solution of a test compound was added for incubation at 37° C. for 30 minutes. Then, ^14C-D-glucose was added for incubation for one minute. A solution containing 1 mM phlorizin was used to terminate the glucose uptake reaction. The radioactivity ^14C of ^14C-D-glucose incorporated in the renal brush border membrane was counted with a liquid scintillation counter. The glucose uptake independent on sodium was reduced from the glucose uptake in a control group or a test group, to calculate the inhibition intensity."}, "Male Wistar rats [5]": {"test_system": "Male Wistar rats", "assay": "Test Example 1: evaluation of urine sugar excretion action in rats", "format": "in vivo, rat", "conditions": "100 mg/kg p.o. in olive oil, urine collected 24 hours, per individual per day", "protocol": "Male Wistar rats aged 5 weeks (purchased from Charles River Japan, Inc.) were acclimatized in metabolic cages for one week, for use at this experiment. The test compounds suspended in olive oil were prepared into a 20 mg/ml solution to a dose of 5 ml per 1 kg rat body weight.\nAfter the rats were starved for 4 hours, the test compounds were orally given at 100 mg/kg to the rats at 11 am. Immediately after dosing until 24 hours later, urine was collected. The volume of urine was measured. Then, urine sugar concentration was assayed by glucose oxidase method, to calculate the glucose excretion into urine per individual per day."}}}
{"smiles": "COC(=O)OC[C@H]1O[C@@H](Oc2cc(C)cc(O)c2C(=O)CCc2ccc3occc3c2)[C@H](O)[C@@H](O)[C@@H]1O", "note": "[3-(5-benzo[b]furanyl)-2′-(6-o-methoxycarbonyl-β-D-glucopyranosyloxy)-6′-hydroxy-4′-methylpropiophenone]", "values": [{"measurement": "Blood glucose 180 minutes after glucose loading and thereafter", "setting": "[1]; inhibitor B 30 mg/kg alone or with nateglinide 50 mg/kg p.o., vs vehicle", "result": "lower than that in the vehicle-dosed group"}, {"measurement": "Pattern of glycemic suppression at increased dose", "setting": "[1]; nateglinide 80 mg/kg, inhibitor B 80 mg/kg", "result": "This pattern of glycemic suppression was also observed in the group with the increase of the dose"}, {"measurement": "Hyperglycemia 30 minutes after loading with glucose and nateglinide (in words)", "setting": "[2]", "result": "nateglinide greatly suppressed hyperglycemia due to glucose loading"}, {"measurement": "Excreted urine sugar", "setting": "Male Wistar rats [3]", "result": 2, "unit": "mg"}]}
{"smiles": "CSc1ccc(Cc2c(O[C@@H]3O[C@H](CO)[C@@H](O)[C@H](O)[C@H]3O)n[nH]c2C(F)(F)F)cc1", "note": "[Production Example 1-A, 4-((4-methylthiophenyl)methyl)-5-(trifluoromethyl)-1H-pyrazole-3-o-β-D-glucopyranoside]", "values": [{"measurement": "Inhibition intensity", "setting": "[4]; concentration of test compound 10 μM", "result": "84% (10 μM)"}]}
{"smiles": "CCc1ccc(Cc2c(OC3OC(COC(=O)OC)C(O)C(O)C3O)nn(C3CCC3)c2C(F)(F)F)cc1", "note": "[Production Example 2, 1′-cyclobutyl-4′-[(4-ethylphenyl)methyl]-5′-trifluoromethyl-1H-pyrazole-3′-o-(6-carbomethoxy)-β-D-glucopyranoside]", "values": [{"measurement": "Urine sugar excretion", "setting": "Male Wistar rats [5]", "result": 656, "unit": "mg"}]}
{"smiles": "CCc1ccc(Cc2c(O[C@@H]3O[C@H](C(=O)O)[C@@H](O)[C@H](O)[C@H]3O)n[nH]c2C(F)(F)F)cc1", "note": "[Production Example 2-A, 4-((4-ethylphenyl)methyl)-5-(trifluoromethyl)-1H-pyrazol-3-yl-β-D-glucopyranoside uronic acid]", "values": [{"measurement": "Inhibition intensity", "setting": "[4]; concentration of test compound 100 μM", "result": "30% (100 μM)"}]}
{"smiles": "CCc1ccc(Cc2c(OC3OC(COC(=O)OC)C(O)C(O)C3O)nn(C3CCCC3)c2C(F)(F)F)cc1", "note": "[Production Example 4, 1′-cyclopentyl-4′-[(4-ethylphenyl)methyl]-5′-trifluoromethyl-1H-pyrazole-3′-o-(6-carbomethoxy)-β-D-glucopyranoside]", "values": [{"measurement": "Urine sugar excretion", "setting": "Male Wistar rats [5]", "result": 452, "unit": "mg"}]}
